In ChEMBL document CHEMBL1157528, “Mixed tetraoxanes containing the acetone subunit as antimalarials” (Bioorg Med Chem, 2008):
The source made the active and inactive calls. The calls are words filed in the database; no cut-off is given here.

Experiments:
[1] = system: Plasmodium berghei; test: Antimalarial activity as survival time against Plasmodium berghei KBG173 infected CD1 mice (Mus musculus) at 160 mg/kg/day subcutaneous dose; type: functional
[2] = system: Plasmodium berghei; test: Antimalarial activity as survival time against Plasmodium berghei KBG173 infected CD1 mice (Mus musculus) at 80 mg/kg/day subcutaneous dose; type: functional
[3] = system: Plasmodium berghei; test: Antimalarial activity against Plasmodium berghei KBG173 infected CD1 mice (Mus musculus) assessed as survival time at 80 mg/kg/day, subcutaneously administered on day 3 twice a day; type: functional; details: route subcutaneous
[4] = system: Plasmodium berghei; test: Antimalarial activity as reduced parasitaemia at day 17 against Plasmodium berghei KBG173 infected CD1 mice (Mus musculus) at 320 mg/kg/day peroral dose; type: functional; parameters: scale not given: the % may be the effect or the level left; details: route oral
[5] = system: Plasmodium berghei; test: Antimalarial activity as reduced parasitaemia at day 20 against Plasmodium berghei KBG173 infected CD1 mice (Mus musculus) at 320 mg/kg/day peroral dose; type: functional; parameters: scale not given: the % may be the effect or the level left; details: route oral
[6] = system: Plasmodium berghei; test: Antimalarial activity as reduced parasitaemia after 24 days against Plasmodium berghei KBG173 infected CD1 mice (Mus musculus) at 320 mg/kg/day peroral dose; type: functional; parameters: scale not given: the % may be the effect or the level left; details: route oral
[7] = system: Plasmodium berghei; test: Antimalarial activity as reduced parasitaemia after 27 days against Plasmodium berghei KBG173 infected CD1 mice (Mus musculus) at 320 mg/kg/day peroral dose; type: functional; parameters: scale not given: the % may be the effect or the level left; details: route oral
[8] = system: Plasmodium berghei; test: Antimalarial activity as reduced parasitaemia after 31 days against Plasmodium berghei KBG173 infected CD1 mice (Mus musculus) at 320 mg/kg/day peroral dose; type: functional; parameters: scale not given: the % may be the effect or the level left; details: route oral
[9] = system: Plasmodium berghei; test: Antimalarial activity as reduced parasitaemia after 10 days against Plasmodium berghei KBG173 infected CD1 mice (Mus musculus) at 40 mg/kg/day subcutaneous dose; type: functional; parameters: scale not given: the % may be the effect or the level left
[10] = system: Plasmodium berghei; test: Antimalarial activity as reduced parasitaemia after 13 days against Plasmodium berghei KBG173 infected CD1 mice (Mus musculus) at 40 mg/kg/day subcutaneous dose; type: functional; parameters: scale not given: the % may be the effect or the level left
[11] = system: Plasmodium berghei; test: Antimalarial activity as reduced parasitaemia after 17 days against Plasmodium berghei KBG173 infected CD1 mice (Mus musculus) at 40 mg/kg/day subcutaneous dose; type: functional; parameters: scale not given: the % may be the effect or the level left
[12] = system: Plasmodium berghei; test: Antimalarial activity as reduced parasitaemia after 20 days against Plasmodium berghei KBG173 infected CD1 mice (Mus musculus) at 40 mg/kg/day subcutaneous dose; type: functional; parameters: scale not given: the % may be the effect or the level left
[13] = system: Plasmodium berghei; test: Antimalarial activity as reduced parasitaemia after 24 days against Plasmodium berghei KBG173 infected CD1 mice (Mus musculus) at 40 mg/kg/day subcutaneous dose; type: functional; parameters: scale not given: the % may be the effect or the level left
[14] = system: Plasmodium berghei; test: Antimalarial activity as reduced parasitaemia after 27 days against Plasmodium berghei KBG173 infected CD1 mice (Mus musculus) at 40 mg/kg/day subcutaneous dose; type: functional; parameters: scale not given: the % may be the effect or the level left
[15] = system: Plasmodium berghei; test: Antimalarial activity as reduced parasitaemia after 31 days against Plasmodium berghei KBG173 infected CD1 mice (Mus musculus) at 40 mg/kg/day subcutaneous dose; type: functional; parameters: scale not given: the % may be the effect or the level left
[16] = system: Plasmodium berghei; test: Antimalarial activity as reduced parasitaemia after 10 days against Plasmodium berghei KBG173 infected CD1 mice (Mus musculus) at 20 mg/kg/day subcutaneous dose; type: functional; parameters: scale not given: the % may be the effect or the level left
[17] = system: Plasmodium berghei; test: Antimalarial activity as reduced parasitaemia after 13 days against Plasmodium berghei KBG173 infected CD1 mice (Mus musculus) at 20 mg/kg/day subcutaneous dose; type: functional; parameters: scale not given: the % may be the effect or the level left
[18] = system: Plasmodium berghei; test: Antimalarial activity as reduced parasitaemia after 17 days against Plasmodium berghei KBG173 infected CD1 mice (Mus musculus) at 20 mg/kg/day subcutaneous dose; type: functional; parameters: scale not given: the % may be the effect or the level left
[19] = Cytotoxicity against human NCI60 cells; type: functional
[20] = system: Plasmodium berghei; test: Antimalarial activity as reduced parasitaemia at day 6 in Plasmodium berghei KBG173 infected CD1 mice (Mus musculus) at 20 mg/kg/day subcutaneous dose; type: functional; parameters: scale not given: the % may be the effect or the level left
[21] = system: Plasmodium falciparum; test: Relative activity against Plasmodium falciparum W2 as ratio of IC90 to IC50; type: functional
[22] = Metabolic stability in human liver microsomes assessed as half life at 10 uM; type: ADME, Microsome
[23] = Metabolic stability in mouse liver microsomes assessed as half life at 10 uM; type: ADME, Microsome
[24] = system: Plasmodium berghei; test: Antimalarial activity as parasite-free survivors at day 31 of Plasmodium berghei KBG173 infected CD1 mice (Mus musculus) at 20 mg/kg/day peroral dose; type: functional, organism-based
[25] = system: Plasmodium berghei; test: Antimalarial activity as parasite-free survivors at day 31 of Plasmodium berghei KBG173 infected CD1 mice (Mus musculus) at 160 mg/kg/day subcutaneous dose; type: functional, organism-based
[26] = system: Plasmodium berghei; test: Antimalarial activity as parasite-free survivors at day 31 of Plasmodium berghei KBG173 infected CD1 mice (Mus musculus) at 20 mg/kg/day subcutaneous dose; type: functional, organism-based
[27] = system: Plasmodium berghei; test: Antimalarial activity as survival time in Plasmodium berghei KBG173 infected CD1 mice (Mus musculus) at 320 mg/kg/day peroral dose; type: functional; details: route oral
[28] = system: Plasmodium berghei; test: Antimalarial activity as survival time against Plasmodium berghei KBG173 infected CD1 mice (Mus musculus) at 80 mg/kg/day peroral dose 3 - 5 days post infection; type: functional; details: route oral
[29] = system: Plasmodium berghei; test: Antimalarial activity as survival time in Plasmodium berghei KBG173 infected CD1 mice (Mus musculus) at 20 mg/kg/day peroral dose; type: functional; details: route oral
[30] = system: Plasmodium falciparum; test: microbe, parasite or virus in culture; details: TM91C235
Description: Antimalarial activity against mefloquine, chloroquine and quinine-resistant Plasmodium falciparum TM91C235

[31] = system: Plasmodium falciparum; test: microbe, parasite or virus in culture; details: D6
Description: Antimalarial activity against chloroquine and pyrimethamine-sensitive Plasmodium falciparum D6

[32] = system: Plasmodium falciparum; test: microbe, parasite or virus in culture; details: W2
Description: Antimalarial activity against chloroquine and pyrimethamine-resistant Plasmodium falciparum W2

[33] = system: Plasmodium falciparum; test: microbe, parasite or virus in culture; details: RCS
Description: Antimalarial activity against chloroquine-resistant, mefloquine-sensitive Plasmodium falciparum RCS

[34] = system: Plasmodium falciparum; test: Relative activity against Plasmodium falciparum TM91C235 as fold-lower IC90/IC50 ratio relative to mefloquine

CC(=O)O[C@H]1C[C@H]2[C@@H]([C@H](OC(C)=O)C[C@@H]3CC4(CC[C@@]32C)OOC(C)(C)OO4)[C@@H]2CC[C@H]([C@H](C)CCC(=O)NCCN(C)C)[C@@]12C
Survival [1]: 31 days | Survival [2]: 25 days | Survival [3]: 16 days | Activity [4]: 2.36% | Activity [5]: 1.9% | Activity [6]: 1.4% | Activity [7]: 0% | Activity [8]: 0% | Activity [9]: 0% | Activity [10]: 0.004% | Activity [11]: 15.48% | Activity [12]: 3.9% | Activity [13]: 12.53% | Activity [14]: 0% | Activity [15]: 0% | Activity [16]: 0.032% | Activity [17]: 8.72% | Activity [18]: 26.8% | GI50 [19]: 3390 nM | LC50 [19]: 22400 nM | TGI [19]: 10200 nM | Activity [20]: 0.002% | Ratio [21]: 1.71 | half-life at 10 µM [22]: > 60 min | half-life at 10 µM [23]: > 60 min | Activity [24]: inactive | Activity [25]: Active | Activity [26]: inactive | Survival [27]: 29 days | Survival [28]: 14 days | Survival [29]: 8 days | IC50 [30]: 7.16 nM | IC90 [30]: 19.8 nM | IC50 [31]: 11.6 nM | IC90 [31]: 26.2 nM | IC50 [32]: 9.79 nM | IC90 [32]: 16.8 nM

CC(=O)O[C@H]1C[C@H]2[C@@H]([C@H](OC(C)=O)C[C@@H]3CC4(CC[C@@]32C)OOC(C)(C)OO4)[C@@H]2CC[C@H]([C@H](C)CCC(=O)Nc3ccccc3)[C@@]12C
half-life at 10 µM [22]: 19 min | half-life at 10 µM [23]: 16 min | Survival [27]: 23 days | Survival [28]: 25 days | Survival [29]: 23 days | IC50 [33]: 1.89 nM | IC90 [33]: 4.45 nM | IC50 [30]: 15.8 nM | IC90 [30]: 20.9 nM | IC50 [31]: 6.97 nM | IC90 [31]: 20.8 nM | IC50 [32]: 5.02 nM | IC90 [32]: 14.3 nM | fold-lower IC90/IC50 ratio vs mefloquine [34]: 3

CC(=O)O[C@H]1C[C@H]2[C@@H]([C@H](OC(C)=O)C[C@@H]3CC4(CC[C@@]32C)OOC(C)(C)OO4)[C@@H]2CC[C@H]([C@H](C)CCC(=O)N(C)C)[C@@]12C
GI50 [19]: 17000 nM | LC50 [19]: 75900 nM | TGI [19]: 41700 nM | half-life at 10 µM [22]: 49 min | half-life at 10 µM [23]: 17 min | IC50 [33]: 7.19 nM | IC90 [33]: 14 nM | IC50 [30]: 25.1 nM | IC90 [30]: 50.9 nM | IC50 [31]: 35.5 nM | IC90 [31]: 71.5 nM | IC50 [32]: 17.3 nM | IC90 [32]: 31.6 nM
